Assay [1] has as its target Recombinant, full length human FLAG-tagged ATM (Homo sapiens (Human), UniProt Q13315). Put plainly: ATM ELISA for p53 S15 phosphorylation. The assay is classed as biochemical. The settings on record: 0.75 nM ATM, 25 nM p53, 10 μM ATP, 30 min at 20° C.; read-out: ATM BIO IC50. As for the experimental part:
ATM: Recombinant, full length human FLAG-tagged ATM activity (Eurofins 14-933) was measured in an ELISA for p53 S15 phosphorylation, in a 384 well V-bottom polypropylene plate (Greiner Bio One 781280). Reactions contained 0.75 nM ATM, 25 nM full length myc tagged p53 (Eurofins 23-034), 10 μM UltraPure ATP (Promega V915B) and serial dilutions of inhibitors (0.1% DMSO final) in 25 mM HEPES, pH 7.5. 5 mM MgCl2, 2.5 mM MnCl2, 0.006% Brij-35, 0.5% glycerol, 0.1 mg/ml BSA, 0.5 mM DTT and were allowed to proceed for 30 min at 20° C. 70 mM EDTA final terminated the kinase reactions. An aliquot of the terminated reaction (25 μl) was transferred to a 384-well, high binding microplate (Greiner Bio One 781061), precoated with anti-myc capture antibody overnight (Millipore 05-724) diluted in 1:1000 in PBS, then blocked with Odyssey blocking buffer (LI-COR Biosciences 92740000) for 60 min at 20° C. The terminated reaction was allowed to capture for 2 h at 20° C. Phosphorylation was measured using an antibody specific to p53 S15 phosphorylation (1:5000 Abcam ab38497), anti-rabbit HRP (1:1000 Cell Signalling Technology, 7074) and TMB (ab171522). Antibodies were diluted in Odyssey blocking buffer and incubated for 60 min at 20° C. Three washes with PBS containing 0.05% (v/v) Tween 20 (PBS-T) were performed between each incubation. The TMB reaction was stopped with an equal volume of 0.2 M sulfuric acid and absorbance read at 450 nm on the Perkin Elmer Envision within 30 min of terminating the reaction. […] IC50 values represent the mean from at least two independent experiments.
Background: In an ELISA, binding on a coated surface is turned into a signal by an enzyme label.

Another assay deals with cellular ATM activity (Homo sapiens (Human), UniProt Q13315). The assay can be described thus: Inhibition of cellular ATM activity: etoposide-stimulated KAP1 phosphorylation in U20S cells. In kind it is cell-based. The settings on record: 100 μM etoposide, 60 min, read-out: ATM CELL IC50. As for the experimental part: Inhibition of cellular ATM activity was determined by changes in etoposide-stimulated KAP1 phosphorylation, based on the work of Guo et al. 2014.
Chain of cellular ATM activity (Q13315 whole entry): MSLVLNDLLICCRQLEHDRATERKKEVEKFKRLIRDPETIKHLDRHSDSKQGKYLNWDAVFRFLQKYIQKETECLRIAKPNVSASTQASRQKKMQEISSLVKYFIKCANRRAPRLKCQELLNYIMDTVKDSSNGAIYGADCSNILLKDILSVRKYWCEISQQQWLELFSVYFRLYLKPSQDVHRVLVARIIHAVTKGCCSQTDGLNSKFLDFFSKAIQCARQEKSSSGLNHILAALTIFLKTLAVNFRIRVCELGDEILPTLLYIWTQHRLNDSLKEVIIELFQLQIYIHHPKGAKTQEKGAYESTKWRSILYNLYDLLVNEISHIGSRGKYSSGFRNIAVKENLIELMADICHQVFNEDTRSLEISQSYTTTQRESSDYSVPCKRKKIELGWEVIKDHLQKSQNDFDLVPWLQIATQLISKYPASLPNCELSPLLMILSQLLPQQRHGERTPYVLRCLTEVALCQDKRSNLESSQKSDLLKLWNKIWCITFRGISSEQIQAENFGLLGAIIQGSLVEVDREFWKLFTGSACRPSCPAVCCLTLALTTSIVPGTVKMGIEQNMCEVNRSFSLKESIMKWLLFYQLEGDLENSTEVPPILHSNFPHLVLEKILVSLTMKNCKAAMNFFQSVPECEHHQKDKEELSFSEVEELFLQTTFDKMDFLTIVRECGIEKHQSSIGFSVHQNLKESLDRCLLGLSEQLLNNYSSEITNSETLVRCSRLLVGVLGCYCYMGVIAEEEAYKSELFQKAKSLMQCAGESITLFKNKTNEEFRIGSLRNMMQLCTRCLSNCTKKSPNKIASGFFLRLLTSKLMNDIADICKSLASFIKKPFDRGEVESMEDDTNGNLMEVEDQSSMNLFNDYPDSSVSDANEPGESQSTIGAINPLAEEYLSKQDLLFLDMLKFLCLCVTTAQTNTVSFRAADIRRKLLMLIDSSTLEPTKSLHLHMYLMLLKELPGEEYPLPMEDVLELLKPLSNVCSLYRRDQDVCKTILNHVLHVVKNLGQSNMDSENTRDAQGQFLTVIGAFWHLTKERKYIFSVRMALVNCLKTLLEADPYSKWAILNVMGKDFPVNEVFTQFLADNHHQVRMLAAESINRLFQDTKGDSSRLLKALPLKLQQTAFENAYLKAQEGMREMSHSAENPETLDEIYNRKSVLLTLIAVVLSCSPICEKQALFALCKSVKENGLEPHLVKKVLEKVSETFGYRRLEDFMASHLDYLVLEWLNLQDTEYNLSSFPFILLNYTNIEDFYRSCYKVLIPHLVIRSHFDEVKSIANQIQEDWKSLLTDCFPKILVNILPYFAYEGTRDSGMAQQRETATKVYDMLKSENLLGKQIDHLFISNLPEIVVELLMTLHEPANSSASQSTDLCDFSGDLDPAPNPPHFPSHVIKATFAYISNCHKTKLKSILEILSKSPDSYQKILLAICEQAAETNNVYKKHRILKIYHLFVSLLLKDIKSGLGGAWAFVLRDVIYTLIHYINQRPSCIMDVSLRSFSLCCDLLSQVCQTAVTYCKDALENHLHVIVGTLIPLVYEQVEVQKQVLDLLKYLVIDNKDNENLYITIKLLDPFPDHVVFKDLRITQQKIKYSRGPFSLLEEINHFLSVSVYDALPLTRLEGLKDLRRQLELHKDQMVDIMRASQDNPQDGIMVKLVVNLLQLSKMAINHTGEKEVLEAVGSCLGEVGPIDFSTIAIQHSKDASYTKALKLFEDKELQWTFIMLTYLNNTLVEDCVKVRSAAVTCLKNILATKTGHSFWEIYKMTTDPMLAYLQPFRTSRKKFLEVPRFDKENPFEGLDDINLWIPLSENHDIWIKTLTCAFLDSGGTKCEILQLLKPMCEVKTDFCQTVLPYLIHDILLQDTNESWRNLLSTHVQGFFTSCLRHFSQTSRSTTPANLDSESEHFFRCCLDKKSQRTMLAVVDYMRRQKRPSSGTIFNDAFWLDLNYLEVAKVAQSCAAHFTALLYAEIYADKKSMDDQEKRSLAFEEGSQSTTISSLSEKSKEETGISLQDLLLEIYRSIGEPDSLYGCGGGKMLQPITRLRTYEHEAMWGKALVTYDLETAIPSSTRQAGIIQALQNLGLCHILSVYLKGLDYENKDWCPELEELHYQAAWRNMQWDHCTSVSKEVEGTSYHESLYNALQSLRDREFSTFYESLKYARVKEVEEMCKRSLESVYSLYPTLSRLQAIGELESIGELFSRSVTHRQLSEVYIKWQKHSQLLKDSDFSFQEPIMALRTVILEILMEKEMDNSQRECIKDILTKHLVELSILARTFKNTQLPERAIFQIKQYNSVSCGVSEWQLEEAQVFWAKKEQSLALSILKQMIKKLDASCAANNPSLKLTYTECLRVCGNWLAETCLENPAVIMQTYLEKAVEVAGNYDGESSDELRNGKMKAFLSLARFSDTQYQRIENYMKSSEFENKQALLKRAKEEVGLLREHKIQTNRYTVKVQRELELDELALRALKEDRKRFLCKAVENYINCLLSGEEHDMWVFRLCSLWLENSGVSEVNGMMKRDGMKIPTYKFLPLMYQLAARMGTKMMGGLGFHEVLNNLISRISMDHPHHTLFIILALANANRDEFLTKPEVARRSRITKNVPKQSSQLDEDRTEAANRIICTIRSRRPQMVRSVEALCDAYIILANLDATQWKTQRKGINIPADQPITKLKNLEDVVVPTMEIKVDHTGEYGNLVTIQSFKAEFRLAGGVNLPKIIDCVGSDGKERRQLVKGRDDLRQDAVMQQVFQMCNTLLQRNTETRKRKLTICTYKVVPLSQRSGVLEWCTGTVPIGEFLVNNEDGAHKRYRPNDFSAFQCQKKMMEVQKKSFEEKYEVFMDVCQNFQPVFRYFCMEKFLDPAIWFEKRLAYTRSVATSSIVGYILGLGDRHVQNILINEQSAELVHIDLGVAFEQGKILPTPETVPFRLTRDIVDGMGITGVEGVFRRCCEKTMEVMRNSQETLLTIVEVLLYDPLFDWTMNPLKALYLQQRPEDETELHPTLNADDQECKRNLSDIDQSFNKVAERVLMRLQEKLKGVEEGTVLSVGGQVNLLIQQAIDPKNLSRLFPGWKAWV
Cryopreserved U20S cells were plated overnight at 6 k cells/well in black walled, clear bottomed 384 well plates (Greiner Bio One 781090). After overnight incubation (37 C, 5% CO2), cells were incubated with titrations of test compounds (0.3% DMSO final) in the presence of 100 μM etoposide (Sigma E1383) to stimulate ATM via induction of double stranded DNA breaks. After 60 min, cells were fixed using 100% cold methanol and incubated at −20° C. for 10 min. Fixed cells were washed with PBS containing 0.05% (v/v) Tween 20 (PBS-T) prior to a 60 minute blocking step in Odyssey blocking buffer (LI-COR Biosciences 92740000). Primary antibodies (1:1000 phosphorylated KAP1: Cell Signalling Technology 4127, 1:5000 total KAP1: Cell Signaling Technology 5868) were diluted in Odyssey blocking buffer and incubated overnight at 4° C., before addition of IRDye(R) conjugated secondary antibodies (LI-COR Biociences 926-32211, LI-COR Biosciences 926-68070) diluted 1:2000 in Odyssey blocking buffer for 60 min at room temperature and detection by LI-COR Odyssey (ImageStudio version 2.1.10, focus offset 4 mm, resolution 169 μm, lowest quality, intensities of 1 and 3 for 700 and 800 channels respectively). Immunoreactivity was quantified and the ratio of phosphorylated KAP1 calculated by dividing by the total KAP1 immunoreactivity. The percentage of inhibition was calculated for each concentration of compound using 100% (100 μM etoposide+30 μM KU-60019) and 0% effect controls (100 μM etoposide+DMSO). IC50 values represent the mean from at least two independent experiments.

The record followed here is patent US11685734B2, “ATM kinase inhibitors and compositions and methods of use thereof” (CHDI Foundation, Inc., priority 2019, dated 2023).

Chain of Recombinant, full length human FLAG-tagged ATM (Q13315 whole entry): as above

Take `O=c1cc(N2CCOCC2)cc(N2CC(F)(F)C[C@@H]2Cc2ccccc2)[nH]1` [Example 102, (S)-6-(2-benzyl-4,4-difluoropyrrolidin-1-yl)-4-morpholinopyridin-2(1H)-one]: the IC50 (usually the point on the concentration scale where inhibition reaches its midpoint) in assay [1] stood at 39.6 nM; on cellular ATM activity it was 2220 nM.

On to `C[C@@H]1CN(c2cc(=O)[nH]c(N3CCCCC[C@@H]3Cc3ccccc3)n2)CCO1` [Example 270, 2-((R)-2-benzylazepan-1-yl)-6-((R)-2-methylmorpholino)pyrimidin-4(3H)-one], for which the IC50 in assay [1] was found to be 7.4 nM; at cellular ATM activity, 818 nM.

Take `C[C@@H]1CN(c2cc(=O)[nH]c(N3CCCCC[C@@H]3Cc3cccc(F)c3F)n2)CCO1` [Example 300, 2-((R)-2-(2,3-difluorobenzyl)azepan-1-yl)-6-((R)-2-methylmorpholino)pyrimidin-4(3H)-one]: the concentration for half-maximal inhibition (IC50) stood at 93.7 nM in assay [1] and 586 nM at cellular ATM activity.

For the molecule `O=c1cc(N2CCOCC2)cc(N2CCC[C@@H]2Cc2cccc(OC3CCOCC3)c2)[nH]1` [Example 146, (R)-4-morpholino-6-(2-(3-((tetrahydro-2H-pyran-4-yl)oxy)benzyl)pyrrolidin-1-yl)pyridin-2(1H)-one], the IC50 in assay [1] is 74.2 nM; at cellular ATM activity it was 1860 nM.

As for `CC(c1ccccc1)C1CCCN1c1nc(N2CCOCC2)cc(=O)[nH]1` (racemic) [Example 252, 6-morpholino-2-((R*)-2-((S*)-1-phenylethyl)pyrrolidin-1-yl)pyrimidin-4(3H)-one], the 50% inhibitory concentration (IC50) in assay [1] was 63.7 nM; on cellular ATM activity it was 2290 nM.

On to `COc1ccccc1C[C@H]1[C@@H]2C[C@@H]2CN1c1cc(N2CCOCC2)cc(=O)[nH]1` [Example 126], for which the IC50 in assay [1] came out at 6.9 nM; on cellular ATM activity, 388 nM.

As for `COC[C@@H](C)Oc1ccc(C[C@H]2CCCN2c2cc(N3CCOCC3)cc(=O)[nH]2)cc1` [Example 145, 6-((R)-2-(4-(((R)-1-methoxypropan-2-yl)oxy)benzyl)pyrrolidin-1-yl)-4-morpholinopyridin-2(1H)-one], the results for the half-inhibitory concentration (IC50) (in assay [1]; on cellular ATM activity) were 65.6 nM and 2030 nM, respectively.

For the molecule `O=c1cc(N2CCOCC2)nc(N2CCCCC[C@@H]2Cc2cccc3c2OCC3)[nH]1` [Example 225], the IC50 in assay [1] is 3.9 nM; on cellular ATM activity, 260 nM.

Consider `O=c1cc(N2CCOCC2)nc(N2C[C@@H]3C[C@@H]3[C@@H]2Cc2ccccc2)[nH]1` [Example 211], for which the concentration for half-maximal inhibition (IC50) stood at 3.7 nM in assay [1] and 446 nM at cellular ATM activity.

As to `COc1ccccc1C[C@H]1[C@H](C)CCN1c1nc(N2CCO[C@H](C)C2)cc(=O)[nH]1` [Example 296, 2-((2S,3R)-2-(2-methoxybenzyl)-3-methylpyrrolidin-1-yl)-6-((R)-2-methylmorpholino)pyrimidin-4(3H)-one], the half-inhibitory concentration (IC50) in assay [1] stood at 40.5 nM; on cellular ATM activity it was 1850 nM.

As for `COc1ccccc1C[C@H]1CCCCN1c1nc(N2CCOCC2)cc(=O)[nH]1` [Example 197], the concentration for half-maximal inhibition (IC50) is 14.9 nM in assay [1] and 711 nM on cellular ATM activity.

Turning to `COc1c(F)cccc1C[C@H]1CCCCCN1c1nc(N2CCOCC2)cc(=O)[nH]1` [Example 231], the IC50 in assay [1] was found to be 84 nM; at cellular ATM activity, 1090 nM.

In the case of `O=c1cc(N2CCOCC2)cc(N2CCCCC[C@@H]2Cc2ccsc2)[nH]1` [Example 64, (R)-4-morpholino-6-(2-(thiophen-3-ylmethyl)azepan-1-yl)pyridin-2(1H)-one], the half-maximal inhibitory concentration (IC50) was found to be 42.8 nM in assay [1] and 933 nM on cellular ATM activity.

With `COc1ccccc1C[C@H]1[C@H](C)CCN1c1cc(N2CCOCC2)cc(=O)[nH]1` [Example 47, 6-((2S,3R)-2-(2-methoxybenzyl)-3-methylpyrrolidin-1-yl)-4-morpholinopyridin-2(1H)-one], the values for the concentration for half-maximal inhibition (IC50) (in assay [1]; at cellular ATM activity) were 8.3 nM and 347 nM, respectively.

Regarding `CO[C@@H]1CCN(c2cc(N3CCOCC3)cc(=O)[nH]2)[C@H]1Cc1ccccc1` [Example 88, 6-((2S,3R)-2-benzyl-3-methoxypyrrolidin-1-yl)-4-morpholinopyridin-2(1H)-one], the figures for the 50% inhibitory concentration (IC50) (in assay [1]; on cellular ATM activity) were 53 nM and 1660 nM, respectively.

For the molecule `O=c1cc(N2CCOCC2)nc(N2CC[C@@H](F)[C@@H]2Cc2ccccc2)[nH]1` [Example 259, 2-((2S,3R)-2-benzyl-3-fluoropyrrolidin-1-yl)-6-morpholinopyrimidin-4(3H)-one], the values for the half-maximal inhibitory concentration (IC50) (in assay [1]; at cellular ATM activity) were 1.7 nM and 196 nM, respectively.

On to `O=c1cc(N2CCOCC2)nc(N2CCC[C@@H]2Cc2ccccc2)[nH]1` [Example 178, (R)-2-(2-benzylpyrrolidin-1-yl)-6-morpholinopyrimidin-4-ol], for which the results for the concentration for half-maximal inhibition (IC50) (in assay [1]; at cellular ATM activity) were 8 nM and 451 nM, respectively.

As to `C[C@@H]1CN(c2cc(=O)[nH]c(N3CCCCC[C@@H]3Cc3ccccc3F)n2)CCO1` [Example 317, 2-((R)-2-(2-fluorobenzyl)azepan-1-yl)-6-((R)-2-methylmorpholino)pyrimidin-4(3H)-one], the concentration for half-maximal inhibition (IC50) in assay [1] was found to be 46.1 nM; at cellular ATM activity, 857 nM.

Take `CC1CCC[C@H](Cc2ccccc2)N(c2nc(N3CCOCC3)cc(=O)[nH]2)C1` (single isomer, unassigned) [Example 246]: the half-maximal inhibitory concentration (IC50) in assay [1] was found to be 22.5 nM; on cellular ATM activity, 1070 nM.

In the case of `COc1ccccc1C[C@H]1C[C@@H](C)CCCN1c1nc(N2CCOCC2)cc(=O)[nH]1` [Example 237], the IC50 is 35.6 nM in assay [1] and 592 nM on cellular ATM activity.

`COc1ccccc1C[C@H]1CC(F)(F)CCCN1c1cc(N2CCOCC2)cc(=O)[nH]1` [Example 62, (S)-6-(4,4-difluoro-2-(2-methoxybenzyl)azepan-1-yl)-4-morpholinopyridin-2(1H)-one]: the results for the IC50 (in assay [1]; on cellular ATM activity) were 40.5 nM and 1250 nM, respectively.

For `COc1cccc(C[C@H]2CCCCCN2c2nc(N3CCOCC3)cc(=O)[nH]2)c1OC` [Example 230], the results for the IC50 (in assay [1]; on cellular ATM activity) were 71.2 nM and 881 nM, respectively.

Consider `COc1ccccc1C[C@H]1CCCCCN1c1nc(N2CCOCC2)cc(=O)[nH]1` [Example 201], for which the values for the IC50 (in assay [1]; at cellular ATM activity) were 14.1 nM and 693 nM, respectively.

Take `Cn1c(N2CCC[C@@H]2Cc2ccccc2)nc(N2CCOCC2)cc1=O` [Example 176, (R)-2-(2-benzylpyrrolidin-1-yl)-3-methyl-6-morpholinopyrimidin-4(3H)-one]: the results for the concentration for half-maximal inhibition (IC50) (in assay [1]; at cellular ATM activity) were 5.1 nM and 462 nM, respectively.

On to `O=c1cc(N2CCOCC2)nc(N2CCCC2Cn2cnc3ccccc32)[nH]1` (stereo not shown) [Example 192], for which the values for the IC50 (in assay [1]; on cellular ATM activity) were 30 nM and 1340 nM, respectively.

Consider `O=c1cc(N2CCOCC2)nc(N2CC[C@@H](O)[C@@H]2Cc2ccccc2)[nH]1` [Example 258, 2-((2S,3R)-2-benzyl-3-hydroxypyrrolidin-1-yl)-6-morpholinopyrimidin-4(3H)-one], for which the results for the half-inhibitory concentration (IC50) (in assay [1]; at cellular ATM activity) were 6.8 nM and 881 nM, respectively.

Turning to `Cc1ccc(C[C@H]2CCCN2c2nc(N3CCO[C@H](C)C3)cc(=O)[nH]2)cc1` [Example 274, 4-[(2R)-2-methylmorpholin-4-yl]-2-[(2R)-2-(p-tolylmethyl)pyrrolidin-1-yl]-1H-pyrimidin-6-one], the values for the IC50 (in assay [1]; at cellular ATM activity) were 32.7 nM and 410 nM, respectively.

For the molecule `O=c1cc(N2CCOCC2)cc(N2C[C@H]3CC[C@H](C3)[C@@H]2Cc2ccccc2)[nH]1` [Example 135], the IC50 in assay [1] was 8.7 nM; on cellular ATM activity, 178 nM.

`COC[C@@H](C)Oc1ccc(C[C@H]2CCCCCN2c2cc(N3CCOCC3)cc(=O)[nH]2)cc1` [Example 151, 6-((R)-2-(4-(((R)-1-methoxypropan-2-yl)oxy)benzyl)azepan-1-yl)-4-morpholinopyridin-2(1H)-one]: the IC50 in assay [1] was 20.9 nM; on cellular ATM activity, 1020 nM.
